From ChEMBL document CHEMBL4699440, “Comprehensive review on the anti-bacterial activity of 1,2,3-triazole hybrids” (Eur J Med Chem, 2019)
Converted amounts (≈) assume the structure as drawn.

What was measured:
Escherichia coli [1] = experiment: Antibacterial activity against Escherichia coli assessed as inhibition zone at 10 mg/ml; type: functional; details: read-out: IZ
Klebsiella pneumoniae = experiment: Antibacterial activity against Klebsiella pneumoniae assessed as inhibition zone at 10 mg/ml; type: functional; details: read-out: IZ
Proteus vulgaris = experiment: Antibacterial activity against Proteus vulgaris assessed as inhibition zone at 10 mg/ml; type: functional; details: read-out: IZ
Salmonella typhi = experiment: Antibacterial activity against Salmonella typhi assessed as inhibition zone at 10 mg/ml; type: functional, Salmonella enterica subsp. enterica serovar Typhi; details: Salmonella enterica, read-out: IZ
Pseudomonas aeruginosa [2] = experiment: Antibacterial activity against Pseudomonas aeruginosa assessed as inhibition zone at 10 mg/ml; type: functional; details: read-out: IZ
Escherichia coli [3] = experiment: Antibacterial activity against Escherichia coli MTCC […] by serial dilution method; type: functional
Bacillus subtilis = experiment: Antibacterial activity against Bacillus subtilis MTCC 441 by serial dilution method; type: functional
[4] = tested on: Staphylococcus epidermidis; experiment: Antibacterial activity against Staphylococcus epidermidis MTCC 6880 by serial dilution method; type: functional
Aspergillus niger = experiment: Antibacterial activity against Aspergillus niger MTCC 8189 by serial dilution method; type: functional
Pseudomonas aeruginosa [5] = experiment: Antibacterial activity against Pseudomonas aeruginosa MTCC 424 by serial dilution method; type: functional
Candida albicans = experiment: Antibacterial activity against Candida albicans MTCC 227 by serial dilution method; type: functional

Row | SMILES | zone of inhibition at 10000 µg/mL (Escherichia coli [1]) [mm] | zone of inhibition at 10000 µg/mL (Klebsiella pneumoniae) [mm] | zone of inhibition at 10000 µg/mL (Proteus vulgaris) [mm] | zone of inhibition at 10000 µg/mL (Salmonella typhi) [mm] | zone of inhibition at 10000 µg/mL (Pseudomonas aeruginosa [2]) [mm] | MIC (Escherichia coli [3]) [µM] | MIC (Bacillus subtilis) [µM] | MIC [4] [µM] | MIC (Aspergillus niger) [µM] | MIC (Pseudomonas aeruginosa [5]) [µM] | MIC (Candida albicans) [µM]
1 | O=[N+]([O-])c1ccc(OCc2cn(Cc3cc4ccccc4nc3Cl)nn2)cc1 | 7 | 7 | 7 | 7 | 7 | – | – | – | – | – | –
2 | Cc1cc(O)c(C(=O)/C=C/c2ccc(OCc3cn(-c4ccccc4)nn3)cc2)c(=O)o1 | – | – | – | – | – | 3 (≈ 1.29 µg/mL) | 3 (≈ 1.29 µg/mL) | 3 (≈ 1.29 µg/mL) | 3 (≈ 1.29 µg/mL) | 3 (≈ 1.29 µg/mL) | 3 (≈ 1.29 µg/mL)
3 | CC(=O)Nc1ccc(OCc2cn(Cc3cc4cc(C)ccc4nc3Cl)nn2)cc1 | 7 | 7 | 7 | 7 | 7 | – | – | – | – | – | –
4 | Cc1ccc2nc(Cl)c(Cn3cc(COc4ccc(Cl)c(C)c4)nn3)cc2c1 | 7 | 7 | 7 | 7 | 7 | – | – | – | – | – | –
5 | Clc1ccc(OCc2cn(Cc3cc4ccccc4nc3Cl)nn2)cc1 | 7 | 7 | 7 | 7 | 7 | – | – | – | – | – | –
6 | CC(=O)Nc1ccc(OCc2cn(Cc3cc4ccccc4nc3Cl)nn2)cc1 | 7 | 7 | 7 | 7 | 7 | – | – | – | – | – | –
7 | Cc1cc(O)c(C(=O)/C=C/c2ccc(OCc3cn(Cc4ccccc4[N+](=O)[O-])nn3)cc2)c(=O)o1 | – | – | – | – | – | 3 (≈ 1.47 µg/mL) | 3 (≈ 1.47 µg/mL) | 3 (≈ 1.47 µg/mL) | 3 (≈ 1.47 µg/mL) | 3 (≈ 1.47 µg/mL) | 3 (≈ 1.47 µg/mL)
8 | Cc1ccc2nc(Cl)c(Cn3cc(COc4ccccc4)nn3)cc2c1 | 7 | 7 | 7 | 7 | 7 | – | – | – | – | – | –
9 | COc1ccc2nc(Cl)c(Cn3cc(COc4ccccc4Cl)nn3)cc2c1 | 7 | 7 | 7 | 7 | 7 | – | – | – | – | – | –
10 | COc1ccc2nc(Cl)c(Cn3cc(COc4ccc(Cl)c(C)c4)nn3)cc2c1 | 7 | 7 | 7 | 7 | 7 | – | – | – | – | – | –
11 | Cc1cc(O)c(C(=O)/C=C/c2ccc(OCc3cn(Cc4cccc(F)c4)nn3)cc2)c(=O)o1 | – | – | – | – | – | 3 (≈ 1.38 µg/mL) | 3 (≈ 1.38 µg/mL) | 3 (≈ 1.38 µg/mL) | 3 (≈ 1.38 µg/mL) | 3 (≈ 1.38 µg/mL) | 3 (≈ 1.38 µg/mL)
12 | Cc1cc(O)c(C(=O)/C=C/c2ccc(OCc3cn(Cc4cccc([N+](=O)[O-])c4)nn3)cc2)c(=O)o1 | – | – | – | – | – | 3 (≈ 1.47 µg/mL) | 3 (≈ 1.47 µg/mL) | 3 (≈ 1.47 µg/mL) | 3 (≈ 1.47 µg/mL) | 3 (≈ 1.47 µg/mL) | 3 (≈ 1.47 µg/mL)
13 | Cc1cc(O)c(C(=O)/C=C/c2ccc(OCc3cn(Cc4ccc([N+](=O)[O-])cc4)nn3)cc2)c(=O)o1 | – | – | – | – | – | 3 (≈ 1.47 µg/mL) | 3 (≈ 1.47 µg/mL) | 3 (≈ 1.47 µg/mL) | 3 (≈ 1.47 µg/mL) | 3 (≈ 1.47 µg/mL) | 3 (≈ 1.47 µg/mL)
14 | COc1ccc2nc(Cl)c(Cn3cc(COc4ccc(NC(C)=O)cc4)nn3)cc2c1 | 7 | 7 | 7 | 7 | 7 | – | – | – | – | – | –
15 | Cc1cc(O)c(C(=O)/C=C/c2ccc(OCc3cn(Cc4ccccc4F)nn3)cc2)c(=O)o1 | – | – | – | – | – | 3 (≈ 1.38 µg/mL) | 3 (≈ 1.38 µg/mL) | 3 (≈ 1.38 µg/mL) | 3 (≈ 1.38 µg/mL) | 3 (≈ 1.38 µg/mL) | 3 (≈ 1.38 µg/mL)
16 | Cc1ccc(Cn2cc(COc3ccc(/C=C/C(=O)c4c(O)cc(C)oc4=O)cc3)nn2)cc1 | – | – | – | – | – | 3 (≈ 1.37 µg/mL) | 3 (≈ 1.37 µg/mL) | 3 (≈ 1.37 µg/mL) | 3 (≈ 1.37 µg/mL) | 3 (≈ 1.37 µg/mL) | 3 (≈ 1.37 µg/mL)
17 | Cc1ccc2nc(Cl)c(Cn3cc(COc4ccccc4Cl)nn3)cc2c1 | 7 | 7 | 7 | 7 | 7 | – | – | – | – | – | –
18 | COc1ccc2nc(Cl)c(Cn3cc(COc4ccc(C)cc4)nn3)cc2c1 | 7 | 7 | 7 | 7 | 7 | – | – | – | – | – | –
19 | Cc1cc(O)c(C(=O)/C=C/c2ccc(OCc3cn(Cc4ccc(Br)cc4)nn3)cc2)c(=O)o1 | – | – | – | – | – | 3 (≈ 1.57 µg/mL) | 3 (≈ 1.57 µg/mL) | 3 (≈ 1.57 µg/mL) | 3 (≈ 1.57 µg/mL) | 3 (≈ 1.57 µg/mL) | 3 (≈ 1.57 µg/mL)
